The results in this text go back to patent US20230017045A1, “PYRIDINE AND PYRIMIDINE CARBOXYLATE HERBICIDES AND METHODS OF USE THEREOF” (Dow AgroSciences LLC, priority 2017, published 2023).

In the assay the test system is test plant species. Kind of assay: Post-emergent herbicidal activity test (greenhouse, foliar spray, visual growth reduction). It counts as in vivo. The note with it: post-emergence, 336 h, 140 g ai/ha, 14 days after application. An outline of the steps: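 Visual percent injury (0-100) rated 14 d after treatment, relative to nontreated and solvent-blank plants. Test plants at first or second true leaf stage received an overhead track-sprayer application at 187 L/ha. Compounds were formulated in aqueous acetone/DMSO carrier containing crop oil concentrate and X-77 surfactant.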

[1] abbreviates: ALOMY: blackgrass (Alopecurus myosuroides), read-out: Visual Growth Reduction (%) 14 Days After Application, ALOMY.
The mark [2] stands for this setting: AMARE: redroot pigweed (Amaranthus retroflexus), read-out: Visual Growth Reduction (%) 14 Days After Application, AMARE.
The mark [3] stands for this setting: AVEFA: wild oat (Avena fatua), read-out: Visual Growth Reduction (%) 14 Days After Application, AVEFA.
Setting [4] is: CHEAL: lambsquarters (Chenopodium album), read-out: Visual Growth Reduction (%) 14 Days After Application, CHEAL.
The mark [5] stands for this setting: CIRAR: canada thistle (Cirsium arvense), read-out: Visual Growth Reduction (%) 14 Days After Application, CIRAR.
[6] abbreviates: CYPES: yellow nutsedge (Cyperus esculentus), read-out: Visual Growth Reduction (%) 14 Days After Application, CYPES.
The mark [7] stands for this setting: DIGSA: crabgrass (Digitaria sanguinalis), read-out: Visual Growth Reduction (%) 14 Days After Application, DIGSA.
The mark [8] stands for this setting: ECHCG: barnyardgrass (Echinochloa crus-galli), read-out: Visual Growth Reduction (%) 14 Days After Application, ECHCG.
Where [9] appears, read: IPOHE: ivy-leaf morning glory (Ipomoea hederacea), read-out: Visual Growth Reduction (%) 14 Days After Application, IPOHE.
Where [10] appears, read: KCHSC: kochia (Bassia scoparia), read-out: Visual Growth Reduction (%) 14 Days After Application, KCHSC.
Where [11] appears, read: ORYSA: rice (Oryza sativa), read-out: Visual Growth Reduction (%) 14 Days After Application, ORYSA.
The mark [12] stands for this setting: SETFA: giant foxtail (Setaria faberi), read-out: Visual Growth Reduction (%) 14 Days After Application, SETFA.
[13] abbreviates: SORVU: grain sorghum (Sorghum vulgare), read-out: Visual Growth Reduction (%) 14 Days After Application, SORVU.
Where [14] appears, read: STEME: common chickweed (Stellaria media), read-out: Visual Growth Reduction (%) 14 Days After Application, STEME.
Setting [15] is: TRZAS: wheat, spring (Triticum aestivum), read-out: Visual Growth Reduction (%) 14 Days After Application, TRZAS.

The structures appear in SMILES notation. Where two headings read alike, the source gives them in different places.

In the case of `O=C(O)c1nc(-c2c(Cl)cc(C(F)(F)F)cc2Cl)ccc1Cl` [F156, 3-Chloro-6-(2,6-dichloro-4-(trifluoromethyl)phenyl)picolinic acid], the pest or weed control at 140 g/ha is 45 to 59% under setting [1]; 95 to 100% under setting [2]; 0 to 29% under setting [3]; 85 to 94% under setting [4]; 75 to 84% under setting [5]; 0 to 29% under setting [6]. Further, the pest or weed control at 140 g/ha reads like this: under setting [7], 85 to 94%; under setting [8], 75 to 84%; under setting [9], 95 to 100%; under setting [10], 85 to 94%; under setting [11], 45 to 59%; under setting [12], 95 to 100%. Also, the pest or weed control at 140 g/ha fell in the range of 75 to 84% under setting [13], 0 to 29% under setting [14] and 60 to 74% under setting [15].
`COC(=O)c1nc(-c2ccc(OC(F)F)cc2Cl)ccc1Cl` [F157, methyl 3-chloro-6-(2-chloro-4-(difluoromethoxy)phenyl)picolinate]: the pest or weed control at 140 g/ha runs as follows: under setting [1], 0 to 29%; under setting [2], 95 to 100%; under setting [3], 45 to 59%; under setting [4], 85 to 94%; under setting [5], 85 to 94%; under setting [6], 0 to 29%. Besides, the pest or weed control at 140 g/ha under setting [7] lay within 85 to 94%; the pest or weed control at 140 g/ha under setting [8] lay in the range of 85 to 94%; the pest or weed control at 140 g/ha under setting [9] is 95 to 100%; the pest or weed control at 140 g/ha under setting [10] was in the range of 85 to 94%; the pest or weed control at 140 g/ha under setting [11] lay in the range of 0 to 29%; the pest or weed control at 140 g/ha under setting [12] fell in the range of 85 to 94%. The pest or weed control at 140 g/ha by setting is: under setting [13], 95 to 100%; under setting [14], 0 to 29%; under setting [15], 60 to 74%.
As for `COC(=O)c1nc(-c2ccc(C(F)(F)F)cc2F)c(F)cc1Cl` [F158, methyl 3-chloro-5-fluoro-6-(2-fluoro-4-(trifluoromethyl)phenyl)picolinate], the pest or weed control at 140 g/ha is 0 to 29% under setting [1]; 95 to 100% under setting [2]; 30 to 44% under setting [3]; 95 to 100% under setting [4]; 85 to 94% under setting [5]; 0 to 29% under setting [6]. The pest or weed control at 140 g/ha by setting is: under setting [7], 85 to 94%; under setting [8], 45 to 59%; under setting [9], 95 to 100%; under setting [10], 60 to 74%; under setting [11], 0 to 29%; under setting [12], 75 to 84%. Moreover, the pest or weed control at 140 g/ha under setting [13] is 75 to 84%, the pest or weed control at 140 g/ha under setting [14] was in the range of 0 to 29% and the pest or weed control at 140 g/ha under setting [15] was 60 to 74%.
For the compound `COC(=O)c1nc(-c2ccc(OS(C)(=O)=O)cc2)c(F)cc1Cl` [F159, Methyl 3-chloro-5-fluoro-6-(4-((methylsulfonyl)oxy)phenyl)picolinate], the pest or weed control at 140 g/ha was in the range of 0 to 29% under setting [1]; 60 to 74% under setting [2]; 0 to 29% under setting [3]; 45 to 59% under setting [4]; 30 to 44% under setting [5]; 0 to 29% under setting [6]. Moreover, the pest or weed control at 140 g/ha runs as follows: under setting [7], 60 to 74%; under setting [8], 30 to 44%; under setting [9], 45 to 59%; under setting [10], 0 to 29%; under setting [11], 0 to 29%; under setting [12], 60 to 74%. The pest or weed control at 140 g/ha under setting [13] was 30 to 44%, the pest or weed control at 140 g/ha under setting [14] lay in the range of 0 to 29% and the pest or weed control at 140 g/ha under setting [15] was 0 to 29%.
